Assay results reported in PMC3944532, “Mode of Action of Diterpene and Characterization of Related Metabolites from the Soft Coral, Xenia elongata” (Marine Drugs, 2014).
Like-named read-outs stand apart in the source and are kept apart here.

How the values were obtained:
D3 cells = assay: Apoptosis induction assay (MTT viability), apoptosis resistant D3 cells deficient in Bak and Bax; format: cell-based, mouse
Method: In order to assess the pro-apoptotic activities of these compounds as a marker for their potential anticancer efficacy, methanol soluble fractions of Xenia extracts were tested for apoptosis induction in an MTT assay using the apoptosis competent W2 and apoptosis resistant D3 cells, as described in our previous work. […] To quantify apoptosis induction, viability was determined using an MTT assay. Measurements were taken at time 0 and 48 h after addition of compounds in different concentrations. Viability was calculated as the difference between time 0 (addition of compound) and 48 h. Apoptosis induction was defined as at least 20% death of W2 cells and a 10% or higher growth of D3 cells by MTT assay. The optimal concentration of the compounds for apoptosis induction was determined based on the dose response of the two cells lines by MTT assay. […]
Apoptosis induction in the presence of compounds (2, 3) was carried out in the following manner. […] Cell viability was determined using a modification of the MTT assay, where the reduction of yellow tertazolium salt (MTT—[…]) to purple formazan indicates mitochondrial activity, and thus cell viability. […] After 30 min incubation at 37 °C, with shaking, absorbance was read at 570 nm on a Spectra MAX 250 (Molecular Devices) plate reader. Differential growth from time 0 to 48 h was calculated. […]

W2 cells = assay: Apoptosis induction assay (MTT viability), apoptosis competent W2 cells; format: cell-based, mouse; conditions: for optimal concentration for apoptosis induction: MTT, 0 to 48 h, apoptosis induction = at least 20% death of W2 cells and 10% or higher growth of D3 cells; for cell death in W2 cells: apoptosis competent W2
Method: In order to assess the pro-apoptotic activities of these compounds as a marker for their potential anticancer efficacy, methanol soluble fractions of Xenia extracts were tested for apoptosis induction in an MTT assay using the apoptosis competent W2 and apoptosis resistant D3 cells, as described in our previous work. […] To quantify apoptosis induction, viability was determined using an MTT assay. Measurements were taken at time 0 and 48 h after addition of compounds in different concentrations. Viability was calculated as the difference between time 0 (addition of compound) and 48 h. Apoptosis induction was defined as at least 20% death of W2 cells and a 10% or higher growth of D3 cells by MTT assay. The optimal concentration of the compounds for apoptosis induction was determined based on the dose response of the two cells lines by MTT assay. […] Treatment of W2 and D3 cells with 0.1 µM staurosporine, a protein kinase inhibitor and potent inducer of apoptosis, was included as a positive control for apoptosis induction and for comparison. Thus, the diterpenes we have isolated and characterized effectively and specifically activate apoptosis in immortalized mammalian epithelial cells.
Apoptosis induction in the presence of compounds (2, 3) was carried out in the following manner. W2 (apoptosis competent) and D3 (apoptosis defective) cells were plated in 96- and 6-well plates and incubated for 24 h, after which they were evenly spread at about 50% confluency. At this time, compounds dissolved in DMSO and diluted in growth medium (DMEM) were added to the cells at various concentrations. DMSO concentration was kept at 0.5% in all wells. Plates were incubated for 24, 48 and 72 h. Cell viability was determined using a modification of the MTT assay, where the reduction of yellow tertazolium salt (MTT—[…]) to purple formazan indicates mitochondrial activity, and thus cell viability. Cells were incubated with 0.5 mg/mL MTT for 3 h. Supernatant was aspirated and DMSO was added to dissolve the formazan crystals. After 30 min incubation at 37 °C, with shaking, absorbance was read at 570 nm on a Spectra MAX 250 (Molecular Devices) plate reader. Differential growth from time 0 to 48 h was calculated. Starurosporine, an apoptosis inducer, and DMSO were used as positive and negative controls, respectively.

A549 = A549 cells; cited from earlier work
P-388 = P-388 cells; cited from earlier work
HT-29 = HT-29 cells; cited from earlier work
HDAC3 = HDAC3 (Homo sapiens, UniProt O15379); assay: HDAC inhibition assay, class I, fluorogenic peptide RHKK(Ac)AMC; format: biochemical; conditions: up to 50 µM
Sequence of HDAC3 (O15379 whole entry): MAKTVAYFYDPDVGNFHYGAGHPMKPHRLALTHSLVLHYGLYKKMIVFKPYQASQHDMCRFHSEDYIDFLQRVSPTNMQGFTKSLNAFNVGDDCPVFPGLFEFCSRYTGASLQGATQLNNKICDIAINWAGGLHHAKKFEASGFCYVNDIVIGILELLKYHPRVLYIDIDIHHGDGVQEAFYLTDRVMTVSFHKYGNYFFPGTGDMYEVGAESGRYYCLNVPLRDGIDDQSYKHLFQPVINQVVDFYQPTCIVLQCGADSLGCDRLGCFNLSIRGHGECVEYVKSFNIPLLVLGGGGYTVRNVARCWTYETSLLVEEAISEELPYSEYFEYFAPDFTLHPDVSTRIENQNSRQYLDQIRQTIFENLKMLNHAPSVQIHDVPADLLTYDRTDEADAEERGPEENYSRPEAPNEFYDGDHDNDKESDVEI
Sequence of HDAC3 (Q9Y618 395-489 partner limits assumed): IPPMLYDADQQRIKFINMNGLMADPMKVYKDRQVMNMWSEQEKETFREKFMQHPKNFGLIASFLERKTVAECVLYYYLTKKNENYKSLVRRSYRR

HDAC4 = HDAC4 (Homo sapiens, UniProt P56524); assay: HDAC inhibition assay, class II A, fluorogenic HDAC Class2a substrate; conditions: up to 100 µM
Sequence of HDAC4 (P56524 whole entry): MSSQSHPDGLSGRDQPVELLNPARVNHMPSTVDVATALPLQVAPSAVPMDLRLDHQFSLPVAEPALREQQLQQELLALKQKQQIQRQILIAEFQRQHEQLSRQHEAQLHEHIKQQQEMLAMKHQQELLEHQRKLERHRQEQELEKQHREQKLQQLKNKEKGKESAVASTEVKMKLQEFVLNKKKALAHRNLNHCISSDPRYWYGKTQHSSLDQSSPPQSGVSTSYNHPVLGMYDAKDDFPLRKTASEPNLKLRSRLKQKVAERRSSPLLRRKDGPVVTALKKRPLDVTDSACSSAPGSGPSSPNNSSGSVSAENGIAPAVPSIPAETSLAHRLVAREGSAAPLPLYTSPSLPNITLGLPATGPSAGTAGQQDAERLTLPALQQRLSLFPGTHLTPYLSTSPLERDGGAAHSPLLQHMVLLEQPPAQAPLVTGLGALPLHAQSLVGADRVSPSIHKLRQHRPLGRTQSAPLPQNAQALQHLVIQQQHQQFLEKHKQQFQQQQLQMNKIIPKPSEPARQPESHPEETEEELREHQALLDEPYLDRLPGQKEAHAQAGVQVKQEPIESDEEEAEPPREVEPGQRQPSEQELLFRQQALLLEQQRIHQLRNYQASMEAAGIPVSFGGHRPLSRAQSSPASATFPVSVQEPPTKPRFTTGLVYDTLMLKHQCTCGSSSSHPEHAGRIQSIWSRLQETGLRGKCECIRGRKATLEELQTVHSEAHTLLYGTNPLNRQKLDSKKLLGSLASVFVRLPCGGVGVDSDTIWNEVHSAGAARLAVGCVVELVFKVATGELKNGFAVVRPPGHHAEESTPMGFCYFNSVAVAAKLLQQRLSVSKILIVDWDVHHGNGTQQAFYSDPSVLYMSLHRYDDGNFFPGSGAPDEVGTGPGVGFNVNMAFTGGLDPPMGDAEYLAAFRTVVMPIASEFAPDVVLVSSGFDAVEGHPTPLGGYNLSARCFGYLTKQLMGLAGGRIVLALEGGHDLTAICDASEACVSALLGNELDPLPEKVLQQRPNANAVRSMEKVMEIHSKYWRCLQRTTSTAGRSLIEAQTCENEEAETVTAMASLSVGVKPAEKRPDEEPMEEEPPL

HDAC8 = target: T1, HDAC8 (Homo sapiens, UniProt Q9BY41); assay: HDAC inhibition assay, class I, fluorogenic peptide RHK(Ac)K(Ac)AMC; format: biochemical; conditions: up to 50 µM
T1 sequence (Q9BY41 1-377): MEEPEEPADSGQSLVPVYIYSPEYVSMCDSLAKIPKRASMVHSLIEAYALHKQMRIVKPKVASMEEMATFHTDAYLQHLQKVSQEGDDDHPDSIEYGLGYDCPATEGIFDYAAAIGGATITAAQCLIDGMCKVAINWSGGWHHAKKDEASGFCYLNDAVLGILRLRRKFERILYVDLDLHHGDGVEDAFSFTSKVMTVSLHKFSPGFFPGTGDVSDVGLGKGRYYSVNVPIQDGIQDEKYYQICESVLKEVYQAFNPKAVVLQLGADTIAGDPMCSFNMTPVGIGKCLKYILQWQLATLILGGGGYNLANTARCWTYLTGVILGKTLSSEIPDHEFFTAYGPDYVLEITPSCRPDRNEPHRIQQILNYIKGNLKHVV

HDAC6 = target: T2, HDAC6 (Homo sapiens, UniProt Q9UBN7); assay: HDAC inhibition assay, class II B, fluorogenic peptide RHKK(Ac)AMC; format: biochemical
T2 sequence (Q9UBN7 1-1215): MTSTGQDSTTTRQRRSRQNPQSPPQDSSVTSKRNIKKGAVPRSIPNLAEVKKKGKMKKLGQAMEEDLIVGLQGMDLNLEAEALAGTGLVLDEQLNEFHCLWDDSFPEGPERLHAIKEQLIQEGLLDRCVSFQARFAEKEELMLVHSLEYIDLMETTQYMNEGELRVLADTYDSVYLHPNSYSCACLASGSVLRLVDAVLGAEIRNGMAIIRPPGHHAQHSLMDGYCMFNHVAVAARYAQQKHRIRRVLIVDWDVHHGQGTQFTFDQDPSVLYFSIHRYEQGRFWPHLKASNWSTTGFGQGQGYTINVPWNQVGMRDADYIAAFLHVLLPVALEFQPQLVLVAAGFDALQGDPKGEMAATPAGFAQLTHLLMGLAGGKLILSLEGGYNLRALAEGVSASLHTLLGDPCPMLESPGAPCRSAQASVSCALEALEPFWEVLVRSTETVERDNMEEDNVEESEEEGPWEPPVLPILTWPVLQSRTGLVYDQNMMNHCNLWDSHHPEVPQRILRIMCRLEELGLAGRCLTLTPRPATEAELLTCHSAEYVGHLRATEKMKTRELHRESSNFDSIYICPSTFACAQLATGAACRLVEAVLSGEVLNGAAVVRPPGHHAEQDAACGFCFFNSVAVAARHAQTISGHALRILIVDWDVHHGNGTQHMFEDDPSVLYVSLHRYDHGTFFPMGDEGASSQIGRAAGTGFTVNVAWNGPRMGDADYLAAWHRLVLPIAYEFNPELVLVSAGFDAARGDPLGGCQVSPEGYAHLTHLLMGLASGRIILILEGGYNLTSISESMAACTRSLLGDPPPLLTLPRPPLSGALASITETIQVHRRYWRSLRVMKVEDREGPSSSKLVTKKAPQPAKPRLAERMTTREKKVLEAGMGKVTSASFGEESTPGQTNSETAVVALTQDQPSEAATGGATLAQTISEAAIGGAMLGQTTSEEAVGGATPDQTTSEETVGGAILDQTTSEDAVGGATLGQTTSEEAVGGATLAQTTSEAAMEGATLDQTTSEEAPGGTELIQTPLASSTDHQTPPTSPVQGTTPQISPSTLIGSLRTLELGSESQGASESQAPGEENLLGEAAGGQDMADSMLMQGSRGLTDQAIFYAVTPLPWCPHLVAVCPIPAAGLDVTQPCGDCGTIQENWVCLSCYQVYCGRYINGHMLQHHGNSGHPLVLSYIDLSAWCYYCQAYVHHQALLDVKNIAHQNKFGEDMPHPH

HDAC7 = target: T3, HDAC7 (Homo sapiens, UniProt Q8WUI4); assay: HDAC inhibition assay, class II A, fluorogenic HDAC Class2a substrate; conditions: up to 100 µM
T3 sequence (Q8WUI4 1-952): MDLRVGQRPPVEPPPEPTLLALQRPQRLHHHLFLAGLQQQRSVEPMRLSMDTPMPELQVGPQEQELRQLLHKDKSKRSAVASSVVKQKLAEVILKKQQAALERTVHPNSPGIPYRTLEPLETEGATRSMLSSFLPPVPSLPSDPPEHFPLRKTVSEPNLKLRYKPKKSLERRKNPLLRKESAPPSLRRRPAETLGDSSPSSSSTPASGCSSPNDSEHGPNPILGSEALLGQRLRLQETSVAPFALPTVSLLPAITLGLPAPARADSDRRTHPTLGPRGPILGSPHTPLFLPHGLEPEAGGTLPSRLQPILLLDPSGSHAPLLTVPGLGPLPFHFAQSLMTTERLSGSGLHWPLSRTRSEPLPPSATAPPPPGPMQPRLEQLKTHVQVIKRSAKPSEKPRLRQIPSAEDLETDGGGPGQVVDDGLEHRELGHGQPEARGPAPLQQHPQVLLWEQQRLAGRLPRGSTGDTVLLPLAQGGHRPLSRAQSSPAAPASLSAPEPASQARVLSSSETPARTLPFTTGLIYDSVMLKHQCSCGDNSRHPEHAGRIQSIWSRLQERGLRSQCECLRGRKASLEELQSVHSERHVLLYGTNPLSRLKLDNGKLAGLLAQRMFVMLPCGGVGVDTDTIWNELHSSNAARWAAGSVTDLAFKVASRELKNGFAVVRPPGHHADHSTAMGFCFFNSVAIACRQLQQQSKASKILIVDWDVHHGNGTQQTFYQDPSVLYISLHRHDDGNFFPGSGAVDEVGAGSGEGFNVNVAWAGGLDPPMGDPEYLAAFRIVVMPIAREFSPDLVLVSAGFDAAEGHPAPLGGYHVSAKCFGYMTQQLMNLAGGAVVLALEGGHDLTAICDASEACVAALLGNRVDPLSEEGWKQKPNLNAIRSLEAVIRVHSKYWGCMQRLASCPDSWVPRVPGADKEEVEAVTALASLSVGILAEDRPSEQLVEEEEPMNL

HDAC2 = HDAC2 (Homo sapiens, UniProt Q92769); assay: HDAC inhibition assay, class I, fluorogenic peptide RHKK(Ac)AMC; format: biochemical; conditions: up to 50 µM
Sequence of HDAC2 (Q92769 whole entry): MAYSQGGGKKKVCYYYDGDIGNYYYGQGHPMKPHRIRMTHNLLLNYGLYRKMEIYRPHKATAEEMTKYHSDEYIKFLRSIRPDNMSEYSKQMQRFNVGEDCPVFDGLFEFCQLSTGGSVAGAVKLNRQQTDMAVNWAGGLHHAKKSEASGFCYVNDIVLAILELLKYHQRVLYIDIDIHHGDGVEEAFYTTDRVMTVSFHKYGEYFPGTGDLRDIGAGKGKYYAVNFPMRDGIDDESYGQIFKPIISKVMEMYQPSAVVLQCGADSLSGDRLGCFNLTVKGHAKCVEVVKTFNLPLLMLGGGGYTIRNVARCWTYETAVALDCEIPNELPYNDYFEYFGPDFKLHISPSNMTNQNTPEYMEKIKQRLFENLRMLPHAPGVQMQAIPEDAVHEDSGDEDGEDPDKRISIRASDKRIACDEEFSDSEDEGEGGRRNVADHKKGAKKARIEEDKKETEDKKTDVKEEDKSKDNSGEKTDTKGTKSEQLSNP

HDAC1 = HDAC1 (Homo sapiens, UniProt Q13547); assay: as above; format: biochemical; conditions: up to 50 µM
Sequence of HDAC1 (Q13547 whole entry): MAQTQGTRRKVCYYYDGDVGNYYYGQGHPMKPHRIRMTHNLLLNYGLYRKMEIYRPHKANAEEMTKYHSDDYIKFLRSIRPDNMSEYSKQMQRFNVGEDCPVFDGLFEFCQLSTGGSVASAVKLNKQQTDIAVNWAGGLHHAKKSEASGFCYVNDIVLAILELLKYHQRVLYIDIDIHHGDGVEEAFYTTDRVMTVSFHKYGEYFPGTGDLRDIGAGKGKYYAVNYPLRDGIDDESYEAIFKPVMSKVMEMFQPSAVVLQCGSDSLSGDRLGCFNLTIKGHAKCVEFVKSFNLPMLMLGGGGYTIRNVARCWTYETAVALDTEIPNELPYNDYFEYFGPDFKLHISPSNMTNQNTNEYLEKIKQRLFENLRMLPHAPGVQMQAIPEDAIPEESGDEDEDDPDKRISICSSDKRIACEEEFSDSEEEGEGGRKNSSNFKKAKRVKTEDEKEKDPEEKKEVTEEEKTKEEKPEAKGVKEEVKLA

HDAC5 = HDAC5 (Homo sapiens, UniProt Q9UQL6); assay: HDAC inhibition assay, class II A, fluorogenic HDAC Class2a substrate; conditions: up to 100 µM
Sequence of HDAC5 (Q9UQL6 whole entry): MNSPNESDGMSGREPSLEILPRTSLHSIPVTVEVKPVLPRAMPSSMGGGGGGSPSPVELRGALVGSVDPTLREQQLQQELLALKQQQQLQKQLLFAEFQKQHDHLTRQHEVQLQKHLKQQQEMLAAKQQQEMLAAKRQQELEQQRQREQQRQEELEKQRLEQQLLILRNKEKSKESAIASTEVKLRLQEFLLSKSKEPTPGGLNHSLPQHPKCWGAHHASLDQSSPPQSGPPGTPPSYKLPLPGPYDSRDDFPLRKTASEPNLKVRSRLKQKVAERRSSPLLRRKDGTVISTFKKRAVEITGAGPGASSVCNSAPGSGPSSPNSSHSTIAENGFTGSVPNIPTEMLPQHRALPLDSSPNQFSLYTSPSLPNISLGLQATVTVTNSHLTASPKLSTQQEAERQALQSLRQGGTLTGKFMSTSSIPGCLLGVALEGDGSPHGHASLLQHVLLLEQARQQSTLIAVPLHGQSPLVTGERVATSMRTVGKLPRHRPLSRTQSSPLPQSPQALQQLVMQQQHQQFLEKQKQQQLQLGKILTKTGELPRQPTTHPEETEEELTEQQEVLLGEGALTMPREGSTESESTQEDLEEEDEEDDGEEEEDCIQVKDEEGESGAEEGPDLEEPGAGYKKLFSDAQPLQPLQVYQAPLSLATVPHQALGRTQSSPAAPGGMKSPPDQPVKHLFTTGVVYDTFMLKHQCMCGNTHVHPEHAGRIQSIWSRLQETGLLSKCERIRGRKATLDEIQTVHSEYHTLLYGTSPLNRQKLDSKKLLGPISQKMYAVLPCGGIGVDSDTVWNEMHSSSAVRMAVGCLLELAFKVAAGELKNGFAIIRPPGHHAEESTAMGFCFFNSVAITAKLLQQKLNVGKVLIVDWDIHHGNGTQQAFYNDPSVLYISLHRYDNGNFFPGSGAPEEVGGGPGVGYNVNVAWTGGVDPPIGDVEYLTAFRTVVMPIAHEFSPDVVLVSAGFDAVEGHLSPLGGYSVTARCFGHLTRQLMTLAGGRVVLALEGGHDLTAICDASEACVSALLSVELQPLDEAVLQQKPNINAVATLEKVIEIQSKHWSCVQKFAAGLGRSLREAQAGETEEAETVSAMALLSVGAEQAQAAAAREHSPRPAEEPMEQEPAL

HDAC9 = HDAC9 (Homo sapiens, UniProt Q9UKV0); assay: as above; conditions: up to 100 µM
Sequence of HDAC9 (Q9UKV0 whole entry): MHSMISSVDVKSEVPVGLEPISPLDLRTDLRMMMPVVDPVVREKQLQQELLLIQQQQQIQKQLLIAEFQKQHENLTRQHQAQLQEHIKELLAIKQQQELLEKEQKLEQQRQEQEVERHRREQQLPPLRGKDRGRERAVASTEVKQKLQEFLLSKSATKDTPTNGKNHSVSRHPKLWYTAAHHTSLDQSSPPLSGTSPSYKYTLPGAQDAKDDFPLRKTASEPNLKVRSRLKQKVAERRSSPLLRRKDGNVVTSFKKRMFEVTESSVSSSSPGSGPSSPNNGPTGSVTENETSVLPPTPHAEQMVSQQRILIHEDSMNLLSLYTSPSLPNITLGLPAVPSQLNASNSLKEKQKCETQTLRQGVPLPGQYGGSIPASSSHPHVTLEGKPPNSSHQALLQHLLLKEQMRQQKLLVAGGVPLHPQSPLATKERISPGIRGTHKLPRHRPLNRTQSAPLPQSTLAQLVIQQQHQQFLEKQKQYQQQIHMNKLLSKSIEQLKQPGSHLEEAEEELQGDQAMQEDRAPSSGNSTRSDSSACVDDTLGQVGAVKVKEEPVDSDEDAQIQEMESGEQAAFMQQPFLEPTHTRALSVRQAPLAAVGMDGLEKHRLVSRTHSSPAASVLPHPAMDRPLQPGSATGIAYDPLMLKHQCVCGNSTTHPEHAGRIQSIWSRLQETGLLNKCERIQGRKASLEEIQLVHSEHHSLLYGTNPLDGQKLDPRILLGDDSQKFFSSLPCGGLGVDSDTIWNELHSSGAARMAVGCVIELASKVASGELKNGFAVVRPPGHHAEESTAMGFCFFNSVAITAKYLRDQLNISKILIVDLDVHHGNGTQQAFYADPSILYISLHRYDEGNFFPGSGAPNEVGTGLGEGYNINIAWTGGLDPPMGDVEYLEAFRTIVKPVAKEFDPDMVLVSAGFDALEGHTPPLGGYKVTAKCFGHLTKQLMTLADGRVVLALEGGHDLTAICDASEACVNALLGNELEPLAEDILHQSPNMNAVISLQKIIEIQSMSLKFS

SMILES: C=C1CC/C=C(\C)CC[C@@H]2C(C(CC3OC3(C)C)OC(C)=O)=CO[C@H](OC)[C@@H]12 (relative stereo) [Compound 2]
- cell death in D3 cells (D3 cells): not in D3 cells
- optimal concentration for apoptosis induction (W2 cells): 11.5 µM
- cell death in W2 cells (W2 cells): induce measurable cell death in W2

SMILES: C=C1CC[C@@H]2O[C@@]2(C)CC[C@H](/C(=C\CC2OC2(C)C)COC(C)=O)[C@H]1C(=O)OC (stereo partly shown) [xenitacin]
- cytotoxicity (A549): most active compound in its group
- cytotoxicity (P-388): most active compound in its group
- cytotoxicity (HT-29): most active compound in its group

SMILES: C=C1CC[C@@H]2O[C@@]2(C)CC[C@H](/C(=C/CC2OC2(C)C)CO)[C@H]1C(=O)OC (relative stereo) [Compound 3]
- inhibition of HDAC3 (HDAC3): did not significantly inhibit
- inhibition of HDAC4 (HDAC4): did not significantly inhibit
- cell death in D3 cells (D3 cells): not in D3 cells
- inhibition of HDAC8 (HDAC8): did not significantly inhibit
- inhibition of HDAC6 (HDAC6): inhibits selectively HDAC6 in high micromolar concentrations
- IC50 (HDAC6; 10-dose, 3-fold serial dilution, Compound 3 in duplicate starting at 120 µM, read-out: IC50): 80.9 µM
- IC50 (HDAC6; as stated in text and legend of Figure 6, read-out: IC50): ~80 µM
- HILLSLOPE (HDAC6; curve fit): −1.19
- IC50 (HDAC6; curve fit printed in the picture of Figure 6, read-out: HDAC 6: EC50): 80.9 µM
- inhibition of HDAC7 (HDAC7): did not significantly inhibit
- optimal concentration for apoptosis induction (W2 cells): 1.2 µM
- cell death in W2 cells (W2 cells): induce measurable cell death in W2
- inhibition of HDAC2 (HDAC2): did not significantly inhibit
- inhibition of HDAC1 (HDAC1): did not significantly inhibit
- inhibition of HDAC5 (HDAC5): did not significantly inhibit
- inhibition of HDAC9 (HDAC9): did not significantly inhibit
